Source: patent publication US11634396B2 (priority 2021, dated 2023)

The molecules below were run against human mOR (Homo sapiens (Human), UniProt P35372) (assay: cell-based). Conditions: not given.
Description: CHO Tag-lite human mOR stable cell line from Cisbio (NCBI accession number: NM_000914.3, Bedford, Mass.) were seeded and grown to approximately 80% confluence in Ham F-12 with 10% FBS, 50 U/ml penicillin, 50 μg/ml streptomycin, 2 mM Hepes, and 1 mg/ml geneticin (Invitrogen, Carlsbad, Calif.). Cells were then harvested using accutase (Corning. Coming, N.Y.), centrifuged at 1300 RPM for 5 min, and plated at 5000 cells per 5 μL per well in a 5× dilution of stimulation buffer consisting of the HTRF cAMP Gi kit, water and IBMX at 0.5 mM (Cisbio, Bedford, Mass.) in white HTRF low volume 384 well plates (Cisbio, Bedford, Mass.). Plates were then incubated at 37° C. in 5% CO2 for 10 minutes. For the agonist assay, forskolin was added to a final concentration of 4 μM. […] Test compounds were dissolved in DMSO and water, and then serially diluted to working concentrations such that the concentration of DMSO was less than 0.1%. Diluted test compounds were added at 2.5 μL per well, and plates were incubated at 37° C., and 5% CO2 for 15 minutes, and then at room temperature for 15 minutes. Next 5 μl/well of cAMP Eu-cryptate and 5 μl/well of anti-cAMP-d2 (both diluted 1:20 in lysis buffer) were added, and plates were incubated at room temperature for 1 hour. Following incubation, plates were read in a Synergy Neo2 multi-mode reader (Biotek, Winooski, Vt.). […] For the agonist assay, data was normalized using the maximal DAMGO response. Measurements were performed in triplicate and the dose response was fit using nonlinear regression.

Chain of human mOR (P35372 whole entry): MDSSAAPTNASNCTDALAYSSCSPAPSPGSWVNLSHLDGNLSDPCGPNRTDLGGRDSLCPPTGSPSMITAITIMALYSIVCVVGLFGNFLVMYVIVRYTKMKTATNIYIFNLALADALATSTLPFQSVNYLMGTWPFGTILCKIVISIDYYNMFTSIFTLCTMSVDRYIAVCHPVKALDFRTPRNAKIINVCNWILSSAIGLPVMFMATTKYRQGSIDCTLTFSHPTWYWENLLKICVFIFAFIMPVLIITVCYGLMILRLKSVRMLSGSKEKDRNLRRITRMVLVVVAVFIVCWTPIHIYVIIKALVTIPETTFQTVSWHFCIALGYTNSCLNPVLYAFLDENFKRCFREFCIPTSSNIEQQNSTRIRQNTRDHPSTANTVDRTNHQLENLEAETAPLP

Compound | IC50
Cc1ccc([C@@H](CC(=O)NC[C@H](Cc2ccc(C(N)=O)c(F)c2)N(C)C)C2(C(F)(F)F)CC2)s1 [Compound 53, 4-((S)-2-(dimethylamino)-3-((S)-3-(5-methylthiophen-2-yl)-3-(1-(trifluoromethyl)cyclopropyl)propanamido)propyl)-2-fluorobenzamide] | < 300 nM
CN(C)[C@H](CNC(=O)C[C@H](c1ccsc1)C1(C(F)(F)F)CC1)Cc1ccc(C(N)=O)c(F)c1 [Compound 54, 4-((S)-2-(dimethylamino)-3-((S)-3-(thiophen-3-yl)-3-(1-(trifluoromethyl)cyclopropyl)propanamido)propyl)-2-fluorobenzamide] | > 3000 nM
CN(C)[C@H](CNC(=O)C[C@H](c1cncs1)C1(C(F)(F)F)CC1)Cc1ccc(C(N)=O)c(F)c1 [Compound 55, 4-((S)-2-(dimethylamino)-3-((S)-3-(thiazol-5-yl)-3-(1-(trifluoromethyl)cyclopropyl)propanamido)propyl)-2-fluorobenzamide] | < 300 nM
Cc1cnc([C@@H](CC(=O)NC[C@H](Cc2ccc(C(N)=O)c(F)c2)N(C)C)C2(C(F)(F)F)CC2)nc1 [Compound 57, 4-((S)-2-(dimethylamino)-3-((S)-3-(5-methylpyrimidin-2-yl)-3-(1-(trifluoromethyl)cyclopropyl)propanamido)propyl)-2-fluorobenzamide] | 300 to 3000 nM
Cc1ncc([C@H](CC(=O)NC[C@H](Cc2ccc(C(N)=O)c(F)c2)N(C)C)C2(C(F)(F)F)CC2)s1 [Compound 58, 4-((S)-2-(dimethylamino)-3-((R)-3-(2-methylthiazol-5-yl)-3-(1-(trifluoromethyl)cyclopropyl)propanamido)propyl)-2-fluorobenzamide] | > 3000 nM
Cc1ncc([C@@H](CC(=O)NC[C@H](Cc2ccc(C(N)=O)c(F)c2)N(C)C)C2(C(F)(F)F)CC2)s1 [Compound 59, 4-((S)-2-(dimethylamino)-3-((S)-3-(2-methylthiazol-5-yl)-3-(1-(trifluoromethyl)cyclopropyl)propanamido)propyl)-2-fluorobenzamide] | < 300 nM
CN(C)[C@H](CNC(=O)C[C@H](c1ccncc1F)C1(C(F)(F)F)CC1)Cc1ccc(C(N)=O)c(F)c1 [Compound 61, 4-((S)-2-(dimethylamino)-3-((R)-3-(3-fluoropyridin-4-yl)-3-(1-(trifluoromethyl)cyclopropyl)propanamido)propyl)-2-fluorobenzamide] | > 3000 nM
CN(C)[C@H](CNC(=O)C[C@H](CC1CC1)c1ccncc1)Cc1ccc(C(N)=O)c(F)c1 [Compound 62, 4-((S)-3-((S)-4-cyclopropyl-3-(pyridin-4-yl)butanamido)-2-(dimethylamino)propyl)-2-fluorobenzamide] | < 300 nM
Cc1ncc([C@@H](CC(=O)NC[C@H](Cc2ccc(C(N)=O)c(F)c2)N(C)C)C2CC2)cn1 [Compound 67, 4-((S)-3-((S)-3-cyclopropyl-3-(2-methylpyrimidin-5-yl)propanamido)-2-(dimethylamino)propyl)-2-fluorobenzamide] | > 3000 nM
CN(C)[C@H](CNC(=O)CC(c1ccc(Cl)cn1)C1(C(F)(F)F)CC1)Cc1ccc(C(N)=O)c(F)c1 (stereo partly drawn) [Compound 69, 4-((2S)-3-(3-(5-chloropyridin-2-yl)-3-(1-(trifluoromethyl)cyclopropyl)propanamido)-2-(dimethylamino)propyl)-2-fluorobenzamide] | < 300 nM
CN(C)[C@H](CNC(=O)CC(c1ncccn1)C1(C(F)(F)F)CC1)Cc1ccc(C(N)=O)c(F)c1 (stereo partly drawn) [Compound 71, 4-[(2S)-2-(dimethylamino)-3-[3-(pyrimidin-2-yl)-3-[1-(trifluoromethyl)cyclopropyl]propanamido]propyl]-2-fluorobenzamide] | < 300 nM
CC(C)[C@H](CC(=O)NC[C@H](Cc1ccc(C(N)=O)c(F)c1)N(C)C)c1cccnc1 [Compound 78, 4-[(2S)-2-(dimethylamino)-3-[(3S)-4-methyl-3-(pyridin-3-yl)pentanamido]propyl]-2-fluorobenzamide] | > 3000 nM
Cc1ncc([C@@H](CC(=O)NC[C@H](Cc2ccc(C(N)=O)cc2)N(C)C)C2(C(F)(F)F)CC2)cn1 [Compound 79, 4-((S)-2-(dimethylamino)-3-((R)-3-(2-methylpyrimidin-5-yl)-3-(1-(trifluoromethyl)cyclopropyl)propanamido)propyl)benzamide] | < 300 nM
CN[C@H](CNC(=O)C[C@@H](c1ccccc1)C1(C(F)(F)F)CC1)Cc1ccc(C(N)=O)cc1 [Compound 82, 4-((S)-2-(methylamino)-3-((S)-3-phenyl-3-(1-(trifluoromethyl)cyclopropyl)propanamido)propyl)benzamide] | > 3000 nM
CNC(=O)c1cc(F)c(C[C@@H](CNC(=O)C[C@H](c2cnc(C)nc2)C2(C(F)(F)F)CC2)N(C)C)c(F)c1 [Compound 105, 4-((S)-2-(dimethylamino)-3-((R)-3-(2-methylpyrimidin-5-yl)-3-(1-(trifluoromethyl)cyclopropyl)propanamido)propyl)-3,5-difluoro-N-methylbenzamide] | 300 to 3000 nM
CNC(=O)c1ccc(C[C@@H](CNC(=O)C[C@H](c2ccc(Cl)cc2)C2(C(F)(F)F)CC2)N(C)C)cc1F [Compound 107, 4-((S)-3-((R)-3-(4-chlorophenyl)-3-(1-(trifluoromethyl)cyclopropyl)propanamido)-2-(dimethylamino)propyl)-2-fluoro-N-methylbenzamide] | < 300 nM
CNC(=O)c1ccc(C[C@@H](CNC(=O)CC(c2ncc(Cl)cn2)C2(C(F)(F)F)CC2)N(C)C)c(Cl)c1F (stereo partly drawn) [Compound 112, 3-chloro-4-((2S)-3-(3-(5-chloropyrimidin-2-yl)-3-(1-(trifluoromethyl)cyclopropyl)propanamido)-2-(dimethylamino)propyl)-2-fluoro-N-methylbenzamide] | > 3000 nM
CNC(=O)c1ccc(C[C@@H](CNC(=O)C[C@H](c2ccc(C)nc2)C2(C(F)(F)F)CC2)N(C)C)c(Cl)c1 [Compound 113, 3-chloro-4-((S)-2-(dimethylamino)-3-((R)-3-(6-methylpyridin-3-yl)-3-(1-(trifluoromethyl)cyclopropyl)propanamido)propyl)-N-methylbenzamide] | < 300 nM

Same assay, conditions: CHO Tag-lite human mOR stable cell line; forskolin 4 μM and DAMGO at EC90; read-out: mOR cAMP Antagonist Assay IC50

Compound | IC50
CC(C)C[C@H](CC(=O)NC[C@H](Cc1ccc(C(N)=O)c(F)c1)N(C)C)c1cccnc1 [Compound 60, 4-((S)-2-(dimethylamino)-3-((R)-5-methyl-3-(pyridin-3-yl)hexanamido)propyl)-2-fluorobenzamide] | < 300 nM
CN(C)[C@H](CNC(=O)C[C@@H](c1cncc(F)c1)C(C)(C)C)Cc1ccc(C(N)=O)c(F)c1 [Compound 63, 4-((S)-2-(dimethylamino)-3-((R)-3-(5-fluoropyridin-3-yl)-4,4-dimethylpentanamido)propyl)-2-fluorobenzamide] | < 300 nM
CN(C)[C@H](CNC(=O)C[C@@H](CC1CC1)c1cncnc1)Cc1ccc(C(N)=O)c(F)c1 [Compound 64, 4-((S)-3-((R)-4-cyclopropyl-3-(pyrimidin-5-yl)butanamido)-2-(dimethylamino)propyl)-2-fluorobenzamide] | < 300 nM
CN(C)[C@H](CNC(=O)CC(c1ccncc1)C1(C(F)(F)F)CC1)Cc1ccc(C(N)=O)c(F)c1 (stereo partly drawn) [Compound 70, 4-[(2S)-2-(dimethylamino)-3-[3-(pyridin-4-yl)-3-[1-(trifluoromethyl)cyclopropyl]propanamido]propyl]-2-fluorobenzamide] | > 3000 nM
CNC(=O)c1cc(C)c(C[C@@H](CNC(=O)C[C@H](c2ccc(Cl)cc2)C2(C(F)(F)F)CC2)N(C)C)c(C)c1 [Compound 106, 4-((S)-3-((R)-3-(4-chlorophenyl)-3-(1-(trifluoromethyl)cyclopropyl)propanamido)-2-(dimethylamino)propyl)-3,5-trimethylbenzamide] | > 3000 nM
CNC(=O)c1cc(C)c(C[C@@H](CNC(=O)C[C@@H](CC(C)C)c2ccccn2)N(C)C)c(C)c1 [Compound 108, 4-((S)-2-(dimethylamino)-3-((R)-5-methyl-3-(pyridin-2-yl)hexanamido)propyl)-N,3,5-trimethylbenzamide] | > 3000 nM
CNC(=O)c1ccc(C[C@@H](CNC(=O)C[C@@H](c2ccncc2)C2(C(F)(F)F)CC2)N(C)C)c(Cl)c1F [Compound 110, 3-chloro-4-((S)-2-(dimethylamino)-3-((S)-3-(pyridin-4-yl)-3-(1-(trifluoromethyl)cyclopropyl)propanamido)propyl)-2-fluoro-N-methylbenzamide] | > 3000 nM

Same assay, conditions: read-out: mOR cAMP Antagonist Assay IC50

Compound | IC50
Cc1cnc([C@@H](CC(=O)NC[C@H](Cc2ccc(C(N)=O)c(F)c2)N(C)C)C2(C(F)(F)F)CC2)s1 [Compound 56, 4-((S)-2-(dimethylamino)-3-((S)-3-(5-methylthiazol-2-yl)-3-(1-(trifluoromethyl)cyclopropyl)propanamido)propyl)-2-fluorobenzamide] | 300 to 3000 nM
CN(C)[C@H](CNC(=O)C[C@H](c1ccncc1)C1(C(F)(F)F)CC1)Cc1ccc2[nH]c(=O)ccc2c1 [Compound 103, (R)-N-((S)-2-(dimethylamino)-3-(2-oxo-1,2-dihydroquinolin-6-yl)propyl)-3-(pyridin-4-yl)-3-(1-(trifluoromethyl)cyclopropyl) propanamide] | > 3000 nM
